Assay results taken from ChEMBL document CHEMBL3991601, “The target landscape of clinical kinase drugs” (Science, 2017).
The source made the active and inactive calls. For most assays here, no stated cut-off is given here; in the data, actives have a measured Kd and inactives only a lower limit.

Columns and labels:
[1] = target: Protein kinase C alpha type (Homo sapiens, UniProt P17252)
[2] = target: T1, dCTP pyrophosphatase 1 (Homo sapiens, UniProt Q9H773)
T1 sequence (Q9H773 whole entry): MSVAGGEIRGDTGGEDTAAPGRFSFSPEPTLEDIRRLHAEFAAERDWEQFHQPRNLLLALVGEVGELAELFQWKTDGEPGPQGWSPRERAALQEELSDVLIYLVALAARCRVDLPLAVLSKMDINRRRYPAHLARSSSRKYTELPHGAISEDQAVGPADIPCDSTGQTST

[3] = target: T2, Discoidin domain-containing receptor 2 (Homo sapiens, UniProt Q16832)
T2 sequence (Q16832 whole entry): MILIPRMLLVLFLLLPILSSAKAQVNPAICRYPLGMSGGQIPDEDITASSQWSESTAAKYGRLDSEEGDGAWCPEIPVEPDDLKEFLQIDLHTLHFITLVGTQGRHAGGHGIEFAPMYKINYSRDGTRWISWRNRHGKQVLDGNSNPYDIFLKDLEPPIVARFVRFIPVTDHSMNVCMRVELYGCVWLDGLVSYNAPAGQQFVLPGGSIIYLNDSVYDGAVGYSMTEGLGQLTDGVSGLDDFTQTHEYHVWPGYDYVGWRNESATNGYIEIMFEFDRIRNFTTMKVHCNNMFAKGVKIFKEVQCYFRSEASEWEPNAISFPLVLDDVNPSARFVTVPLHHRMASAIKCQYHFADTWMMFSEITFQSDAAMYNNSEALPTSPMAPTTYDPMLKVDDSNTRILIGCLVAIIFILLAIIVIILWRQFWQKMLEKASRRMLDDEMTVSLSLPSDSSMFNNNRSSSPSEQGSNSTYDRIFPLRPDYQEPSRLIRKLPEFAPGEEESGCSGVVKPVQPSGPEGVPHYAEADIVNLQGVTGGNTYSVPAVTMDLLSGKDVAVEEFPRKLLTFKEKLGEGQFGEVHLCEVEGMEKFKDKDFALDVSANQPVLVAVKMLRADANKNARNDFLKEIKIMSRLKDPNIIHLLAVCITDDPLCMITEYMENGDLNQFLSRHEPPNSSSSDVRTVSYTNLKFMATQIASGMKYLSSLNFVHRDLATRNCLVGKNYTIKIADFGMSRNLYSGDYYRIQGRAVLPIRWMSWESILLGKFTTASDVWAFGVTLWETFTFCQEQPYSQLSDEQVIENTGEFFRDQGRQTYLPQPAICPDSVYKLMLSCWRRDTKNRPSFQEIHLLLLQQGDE

[4] = target: Maternal embryonic leucine zipper kinase (Homo sapiens, UniProt Q14680)
[5] = target: Midasin (Homo sapiens, UniProt Q9NU22)
[6] = target: T3, Very long-chain specific acyl-CoA dehydrogenase, mitochondrial (Homo sapiens, UniProt P49748)
T3 sequence (P49748 whole entry): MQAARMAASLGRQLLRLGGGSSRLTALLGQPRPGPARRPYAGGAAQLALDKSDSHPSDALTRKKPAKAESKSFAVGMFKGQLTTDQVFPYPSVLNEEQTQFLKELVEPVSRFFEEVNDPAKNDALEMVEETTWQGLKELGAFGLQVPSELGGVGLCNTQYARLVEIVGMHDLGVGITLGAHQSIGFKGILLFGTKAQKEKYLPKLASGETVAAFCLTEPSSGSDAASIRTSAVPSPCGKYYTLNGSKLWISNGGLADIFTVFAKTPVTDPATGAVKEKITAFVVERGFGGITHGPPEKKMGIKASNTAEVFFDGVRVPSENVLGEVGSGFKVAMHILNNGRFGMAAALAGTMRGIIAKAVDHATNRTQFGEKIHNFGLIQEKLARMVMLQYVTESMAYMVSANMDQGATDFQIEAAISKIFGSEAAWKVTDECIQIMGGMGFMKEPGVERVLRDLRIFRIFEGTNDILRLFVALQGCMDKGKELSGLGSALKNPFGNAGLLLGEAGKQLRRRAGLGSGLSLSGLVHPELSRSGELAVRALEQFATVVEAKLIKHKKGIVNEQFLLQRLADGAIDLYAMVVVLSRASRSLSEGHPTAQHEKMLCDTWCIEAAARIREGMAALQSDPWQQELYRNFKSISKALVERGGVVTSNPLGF

[7] = target: Dual specificity protein kinase CLK1 (Homo sapiens, UniProt P49759)
[8] = target: Receptor-interacting serine/threonine-protein kinase 3 (Homo sapiens, UniProt Q9Y572)
[9] = target: T4, NUAK family SNF1-like kinase 2 (Homo sapiens, UniProt Q9H093)
T4 sequence (Q9H093 whole entry): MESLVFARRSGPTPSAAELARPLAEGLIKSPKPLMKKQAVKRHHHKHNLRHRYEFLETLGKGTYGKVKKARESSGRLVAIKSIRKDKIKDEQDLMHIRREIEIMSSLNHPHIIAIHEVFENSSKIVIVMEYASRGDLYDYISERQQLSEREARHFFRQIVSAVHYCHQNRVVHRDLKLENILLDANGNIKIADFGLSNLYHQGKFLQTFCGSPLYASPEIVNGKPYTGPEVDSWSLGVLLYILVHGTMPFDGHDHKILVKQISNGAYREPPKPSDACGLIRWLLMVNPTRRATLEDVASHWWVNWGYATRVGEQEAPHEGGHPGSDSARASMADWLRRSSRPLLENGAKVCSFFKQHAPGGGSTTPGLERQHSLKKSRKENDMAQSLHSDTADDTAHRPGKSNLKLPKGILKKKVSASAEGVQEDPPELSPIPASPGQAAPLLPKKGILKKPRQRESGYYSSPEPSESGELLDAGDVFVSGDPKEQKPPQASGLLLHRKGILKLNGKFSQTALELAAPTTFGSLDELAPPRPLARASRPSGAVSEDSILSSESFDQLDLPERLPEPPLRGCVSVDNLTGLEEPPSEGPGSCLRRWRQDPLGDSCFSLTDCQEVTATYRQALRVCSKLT

Chain of Receptor-interacting serine/threonine-protein kinase 3 (Q9Y572 whole entry): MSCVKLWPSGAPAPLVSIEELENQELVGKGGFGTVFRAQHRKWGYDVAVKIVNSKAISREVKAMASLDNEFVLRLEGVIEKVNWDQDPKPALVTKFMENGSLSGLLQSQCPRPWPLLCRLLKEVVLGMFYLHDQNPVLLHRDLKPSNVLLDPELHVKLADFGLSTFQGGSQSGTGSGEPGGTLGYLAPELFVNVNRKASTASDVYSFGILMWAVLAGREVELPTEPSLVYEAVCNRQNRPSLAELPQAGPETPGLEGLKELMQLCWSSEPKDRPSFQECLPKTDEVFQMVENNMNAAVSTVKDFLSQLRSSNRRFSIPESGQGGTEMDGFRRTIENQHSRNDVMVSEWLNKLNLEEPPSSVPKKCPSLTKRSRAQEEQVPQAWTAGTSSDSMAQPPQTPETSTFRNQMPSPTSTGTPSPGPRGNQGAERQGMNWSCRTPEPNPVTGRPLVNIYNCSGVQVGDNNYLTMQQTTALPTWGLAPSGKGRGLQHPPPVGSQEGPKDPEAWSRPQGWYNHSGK
Chain of Maternal embryonic leucine zipper kinase (Q14680 whole entry): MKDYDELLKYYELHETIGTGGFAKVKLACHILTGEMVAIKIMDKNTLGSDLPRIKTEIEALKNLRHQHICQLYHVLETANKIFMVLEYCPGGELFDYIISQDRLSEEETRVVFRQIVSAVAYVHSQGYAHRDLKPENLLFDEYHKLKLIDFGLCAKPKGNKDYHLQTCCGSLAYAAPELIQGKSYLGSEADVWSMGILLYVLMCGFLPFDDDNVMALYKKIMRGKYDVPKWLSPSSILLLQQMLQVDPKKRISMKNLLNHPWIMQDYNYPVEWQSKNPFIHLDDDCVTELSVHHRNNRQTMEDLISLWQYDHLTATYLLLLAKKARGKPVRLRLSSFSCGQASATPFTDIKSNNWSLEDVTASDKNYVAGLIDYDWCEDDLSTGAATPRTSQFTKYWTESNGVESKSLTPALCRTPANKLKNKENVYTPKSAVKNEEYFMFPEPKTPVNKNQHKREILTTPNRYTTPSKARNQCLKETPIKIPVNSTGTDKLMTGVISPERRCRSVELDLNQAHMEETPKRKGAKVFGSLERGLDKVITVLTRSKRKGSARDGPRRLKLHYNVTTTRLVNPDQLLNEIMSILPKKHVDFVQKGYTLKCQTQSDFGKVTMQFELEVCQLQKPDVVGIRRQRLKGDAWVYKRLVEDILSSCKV
Chain of Dual specificity protein kinase CLK1 (P49759 whole entry): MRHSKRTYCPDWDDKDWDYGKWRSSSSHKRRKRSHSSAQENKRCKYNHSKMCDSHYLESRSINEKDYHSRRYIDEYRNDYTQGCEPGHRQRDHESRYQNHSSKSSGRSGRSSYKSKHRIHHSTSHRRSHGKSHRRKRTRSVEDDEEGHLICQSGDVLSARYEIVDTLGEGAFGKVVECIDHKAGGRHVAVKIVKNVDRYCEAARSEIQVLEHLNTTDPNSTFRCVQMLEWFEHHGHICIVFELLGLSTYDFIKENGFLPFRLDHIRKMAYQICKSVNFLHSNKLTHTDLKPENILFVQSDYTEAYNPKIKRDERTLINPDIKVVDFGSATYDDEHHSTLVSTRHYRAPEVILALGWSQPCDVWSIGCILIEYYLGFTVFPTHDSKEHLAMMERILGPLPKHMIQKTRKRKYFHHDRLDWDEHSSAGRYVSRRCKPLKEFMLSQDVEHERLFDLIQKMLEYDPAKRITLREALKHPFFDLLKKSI

Kd [1]	Kd [2]	Kd [3]	Kd [4]	Kd [5]	Kd [6]	Kd [7]	Kd [8]	Kd [9]	Structure (SMILES)
> 30 µM (inactive)	> 30 µM (inactive)	> 30 µM (inactive)	> 30 µM (inactive)	> 30 µM (inactive)	> 30 µM (inactive)	> 30 µM (inactive)	> 30 µM (inactive)	> 30 µM (inactive)	FC(F)(F)c1ccc(/C=C/c2nc(COc3ccc(CCCCn4ccnn4)cc3)co2)cc1 [MUBRITINIB]
> 30 µM (inactive)	> 30 µM (inactive)	> 30 µM (inactive)	> 30 µM (inactive)	> 30 µM (inactive)	> 30 µM (inactive)	> 30 µM (inactive)	> 30 µM (inactive)	> 30 µM (inactive)	COc1ncc(-c2ccc3nccc(-c4ccnnc4)c3c2)cc1NS(=O)(=O)c1ccc(F)cc1F [OMIPALISIB]
0.873 µM (active)	> 30 µM (inactive)	> 30 µM (inactive)	0.057 µM (active)	> 30 µM (inactive)	> 30 µM (inactive)	0.09 µM (active)	> 30 µM (inactive)	> 30 µM (inactive)	Cc1nc(Nc2n[nH]c3c2CN(C(=O)N[C@H](CN(C)C)c2ccccc2)C3(C)C)c2sccc2n1 [PF-03758309]
> 30 µM (inactive)	> 30 µM (inactive)	> 30 µM (inactive)	> 30 µM (inactive)	> 30 µM (inactive)	> 30 µM (inactive)	> 30 µM (inactive)	> 30 µM (inactive)	> 30 µM (inactive)	Cc1cnc(NC(=O)Nc2cc(Br)c(C)cc2OC[C@@H]2CNCCO2)cn1 [RABUSERTIB]
> 30 µM (inactive)	> 30 µM (inactive)	> 30 µM (inactive)	> 30 µM (inactive)	> 30 µM (inactive)	> 30 µM (inactive)	> 30 µM (inactive)	> 30 µM (inactive)	> 30 µM (inactive)	CO[C@H]1C[C@@H]2CC[C@@H](C)[C@@](O)(O2)C(=O)C(=O)N2CCCC[C@H]2C(=O)O[C@H]([C@H](C)C[C@@H]2CC[C@@H](OP(C)(C)=O)[C@H](OC)C2)CC(=O)[C@H](C)/C=C(\C)[C@@H](O)[C@@H](OC)C(=O)[C@H](C)C[C@H](C)/C=C/C=C/C=C/1C [RIDAFOROLIMUS]
> 30 µM (inactive)	> 30 µM (inactive)	> 30 µM (inactive)	> 30 µM (inactive)	> 30 µM (inactive)	> 30 µM (inactive)	> 30 µM (inactive)	2.37 µM (active)	> 30 µM (inactive)	N#CC1(c2ccc(NC(=O)c3cccnc3NCc3ccncc3)cc2)CCCC1 [RIVOCERANIB]
> 30 µM (inactive)	> 30 µM (inactive)	> 30 µM (inactive)	> 30 µM (inactive)	> 30 µM (inactive)	> 30 µM (inactive)	> 30 µM (inactive)	> 30 µM (inactive)	> 30 µM (inactive)	O=c1[nH]ccc2cc(OC3CCNCC3)ccc12 [SAR-407899 FREE BASE]
> 30 µM (inactive)	> 30 µM (inactive)	> 30 µM (inactive)	4.69 µM (active)	> 30 µM (inactive)	> 30 µM (inactive)	> 30 µM (inactive)	> 30 µM (inactive)	> 30 µM (inactive)	Cn1cc(-c2cnn3c(N)c(Br)c([C@@H]4CCCNC4)nc23)cn1 [SCH-900776]

Structure (SMILES)	Kd [1]	Kd [2]	Kd [3]	Kd [4]	Kd [5]	Kd [6]	Kd [7]	Kd [8]	Kd [9]
CCOc1cc2ncc(C#N)c(Nc3ccc(F)c(Cl)c3)c2cc1NC(=O)/C=C/CN(C)C [PELITINIB]	> 30 µM (inactive)	> 30 µM (inactive)	> 30 µM (inactive)	> 30 µM (inactive)	> 30 µM (inactive)	> 30 µM (inactive)	> 30 µM (inactive)	> 30 µM (inactive)	> 30 µM (inactive)
CCCCCCCCCCCCCCCCCCOP(=O)([O-])OC1CC[N+](C)(C)CC1 [PERIFOSINE]	> 30 µM (inactive)	> 30 µM (inactive)	> 30 µM (inactive)	> 30 µM (inactive)	> 30 µM (inactive)	> 30 µM (inactive)	> 30 µM (inactive)	> 30 µM (inactive)	> 30 µM (inactive)
